Assay results taken from ChEMBL document CHEMBL2448688, “Selection and optimization of hits from a high-throughput phenotypic screen against Trypanosoma cruzi. Exported from HEOS 25-Oct-2013. See also related datasets CHEMBL3137440 and CHEMBL3137386”.
Values after ≈ are worked out from the molar mass of the structure shown. Values joined by “and” are separate entries in the source; they are usually repeats but may differ in a detail not shown here. Equal entries are not always repeated.

Assays:
in vitro [1] = conditions: human, microsomes
[2] = DNDI: Lipophilicity (gLogD) at pH 3; conditions: buffer, pH 3, logD
in vitro [3] = conditions: human, microsomes, EH
in vitro [4] = conditions: human, microsomes, t (1 / 2)
in vitro [5] = conditions: rat, microsomes
in vitro [6] = conditions: rat, microsomes; remark: listed apart in the source
Cytochrome P450 3A4 [7] = biological target: T1, Cytochrome P450 3A4 (Homo sapiens, UniProt P08684); assay: DNDI: Human CYP3A4 inhibition determined using 6b-hydroxylation of testosterone
T1 sequence (P08684 whole entry): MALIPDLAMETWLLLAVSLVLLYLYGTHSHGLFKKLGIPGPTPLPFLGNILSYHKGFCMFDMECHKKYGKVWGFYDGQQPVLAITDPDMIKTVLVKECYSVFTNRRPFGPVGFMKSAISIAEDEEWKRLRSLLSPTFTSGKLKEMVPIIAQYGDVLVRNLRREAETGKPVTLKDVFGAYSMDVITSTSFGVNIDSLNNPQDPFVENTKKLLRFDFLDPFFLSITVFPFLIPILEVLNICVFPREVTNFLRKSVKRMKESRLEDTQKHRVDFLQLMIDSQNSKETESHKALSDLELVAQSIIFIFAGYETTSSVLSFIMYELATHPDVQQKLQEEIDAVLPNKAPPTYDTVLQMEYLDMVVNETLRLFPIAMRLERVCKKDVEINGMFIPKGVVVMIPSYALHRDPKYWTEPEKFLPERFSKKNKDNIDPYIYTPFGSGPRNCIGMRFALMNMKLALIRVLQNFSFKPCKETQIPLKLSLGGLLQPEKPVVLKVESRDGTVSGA

[8] = DNDI: Metabolism; assay type: ADME, Microsome; conditions: rat, microsomes
[9] = DNDI: Solubility in 0.01M HCl at pH 2 determined by nephelometry; conditions: for solubility kinetic: 0.01M HCl, pH 2, Kinetic
[10] = DNDI: Lipophilicity (gLogD) at pH 7.4; conditions: buffer, pH 7.4, logD
in vitro [11] = conditions: rat, microsomes; remark: listed apart in the source
L6 = assay: (§1) DNDI: Cytotoxicity in vitro, against rat skeletal myoblast (L-6) cells; conditions: L-6 cells (skeletal myoblasts)
[12] = as §1; conditions: L-6 cells (skeletal myoblasts), IC50
Trypanosoma cruzi [13] = assay: (§2) DNDI: Chagas in Vitro; assay type: functional, Tulahuen C4 (LacZ)
in vitro [14] = conditions: mouse, microsomes
in vitro [15] = conditions: mouse, microsomes; remark: listed apart in the source
Trypanosoma cruzi [16] = assay: as §2; assay type: functional, organism-based, Tulahuen C4 (LacZ)
in vitro [17] = conditions: rat, hepatocytes
[18] = DNDI: Solubility in phosphate buffer at pH 6.5 determined by nephelometry; conditions: for solubility kinetic: phosphate buffer, pH 6.5, Kinetic
[19] = DNDI: Protein binding in mouse plasma
Leishmania donovani = assay: DNDI: Leish macro in vitro at 10 uM; assay type: functional; conditions: MHOM/ET/67/L82
[20] = system: Trypanosoma brucei rhodesiense; assay: (§3) DNDI: HAT in Vitro; assay type: functional, organism-based, ATCC 30027
[21] = DNDI: Protein binding in rat plasma; assay type: ADME, cell-free; conditions: read-out: % bound (converted)
Trypanosoma cruzi [22] = assay: DNDI: Chagas in vivo at 50 mg/kg, 20 days 1x; assay type: functional, Tulahuen Swiss po
Trypanosoma cruzi [23] = assay: DNDI: Chagas in vivo at 20 mg/kg, 20 days 2x; assay type: functional, Tulahuen Swiss po
in vitro [24] = conditions: mouse, microsomes; remark: listed apart in the source
CYP3A4 [25] = biological target: T2, CYP3A4 (Homo sapiens, UniProt P08684); assay: DNDI: Human CYP3A4 inhibition at 10 uM determined using 6b-hydroxylation of testosterone; conditions: probe testosterone (6b-hydroxylation)
T2 sequence (P08684 whole entry): as above

CYP3A4 [26] = biological target: T2, CYP3A4; assay: DNDI: Human CYP3A4 inhibition at 1 uM determined using 6b-hydroxylation of testosterone; conditions: probe testosterone (6b-hydroxylation)
Cytochrome P450 3A4 [27] = biological target: T1, Cytochrome P450 3A4; assay: DNDI: CYP Inhibition; assay type: ADME
[28] = human, microsomes
[29] = human, microsomes; remark: listed apart in the source
[30] = human, microsomes; remark: listed apart in the source
Leishmania infantum [31] = assay: DNDI: Leish (macro) in Vitro; assay type: functional, organism-based, MHOM/MA(BE)/67
Leishmania infantum [32] = assay: DNDI: Leish In Vivo - % inhibition and MSD at 50 mg/kg, 5 days 2x; assay type: functional, MHOM/MA(BE)/67 Hamster-Early curative model po
[33] = system: Trypanosoma brucei brucei; assay: as §3; assay type: functional, organism-based; conditions: SBRI 427
[34] = system: Trypanosoma brucei brucei; assay: DNDI: HAT in vivo at 50 mg/kg, 4 adm days; assay type: functional, EATRO 110 po
[35] = Trypanosoma cruzi, Tulahuen C4 (LacZ)

Row | SMILES | microsomal CLint (in vitro [1]) | chromatographic logD [2] | half-life (in vitro [4]) | microsomal CLint (in vitro [6]) | solubility kinetic [9] | chromatographic logD [10] | half-life (in vitro [11]) | IC90 (Trypanosoma cruzi [13]) | half-life (in vitro [14]) | microsomal CLint (in vitro [15]) | IC50 (Trypanosoma cruzi [16]; [35]) | solubility kinetic [18] | IC90 (Trypanosoma cruzi [13]; [35]) | IC50 [12] | also measured
1 | CO/N=C(\C)c1ccc(-n2ccnc2)c(NC(=O)c2ccc(-c3ccccn3)s2)c1 | 30 µL/min/mg | 2.3 | 57 min | 64 µL/min/mg | > 100 µg/mL | 3.1 | 27 min | > 100 nM and 12.8 nM | – | – | – | – | – | 65600 nM | hepatic extraction ratio (in vitro [3]): 0.54; hepatic extraction ratio (in vitro [5]): 0.62; IC50 (Cytochrome P450 3A4 [7]): 2000 nM; CLblood [8]: 42 mL/min/kg; IC50 (L6): 72500 nM
2 | CO/N=C(\C)c1ccc(-n2ccnc2)c(NC(=O)c2cnc(-c3ccccc3)nc2)c1 | 24 µL/min/mg | 2.6 | 73 min | 46 µL/min/mg | > 100 µg/mL | 3.4 | 38 min | 10.5 nM and 25.9 nM | 52 min | 34 µL/min/mg | – | < 1.6 µg/mL | – | > 100000 nM | fraction unbound [19]: 0.028; inhibition at 10 µM (Leishmania donovani): 47.3%; IC50 (Trypanosoma cruzi [16]): 3 nM and 8 nM; CLhep predicted (in vitro [17]): 26.7 mL/min/kg; IC50 ([20]; Trypanosoma brucei, ATCC 30027): > 10000 nM; fraction unbound [21]: 0.014; PCR cure rate (Trypanosoma cruzi [22]): 0%; Parasitemia clearance after immunosuppression (Trypanosoma cruzi [22]): 0%; Parasitemia clearance after treatment (Trypanosoma cruzi [22]): 60%; PCR cure rate (Trypanosoma cruzi [23]): 0%; Parasitemia clearance after immunosuppression (Trypanosoma cruzi [23]): 60%; Parasitemia clearance after treatment (Trypanosoma cruzi [23]): 80%
3 | CC(=O)N(Cc1c[nH]cn1)c1ccc(-c2nc3ccccc3s2)cc1 | 14 µL/min/mg | 1.6 | 123 min | – | > 100 µg/mL | 2.1 | – | – | 81 min | 21 µL/min/mg | 13.5 nM | – | 27 nM | 63400 nM | hepatic extraction ratio (in vitro [3]): 0.35; IC50 (Cytochrome P450 3A4 [7]): > 10000 nM; hepatic extraction ratio (in vitro [24]): 0.32; inhibition at 10 µM (CYP3A4 [25]): 28.1%; inhibition at 1 µM (CYP3A4 [26]): 0.3%
4 | Cl.NCC(=O)N(Cc1cccnc1)c1cc(F)cc(-c2nc3ccccc3s2)c1 | – | – | – | – | 57.5 µg/mL | 2.29 | – | – | – | – | 49 nM | 53 µg/mL | 125 nM | > 100000 nM | EH [28]: 0.54 none; CLint in vitro [29]: 66 µL/min/mg and 30 µL/min/mg; Kinetic ([9]; buffer, pH 2): > 100 µg/mL; t (1 / 2) [30]: 58 min and 26.3 min; Kinetic ([18]; buffer, pH 6.5): > 100 µg/mL
5 | CC(=O)N(Cc1cccnc1)c1ccc(-c2nc3ccccc3s2)cc1 | 98.3 µL/min/mg | 2.18 | 17.6 min | – | 71 µg/mL (≈ 198 µM) | > 3.94 | – | – | – | – | – | 11.9 µg/mL (≈ 33 µM) | – | – | EH [28]: 0.74 none; CLint in vitro [29]: 72 µL/min/mg; t (1 / 2) [30]: 24 min

Further lines, with some results ahead:

Row | microsomal CLint (in vitro [1]) | chromatographic logD [2] | half-life (in vitro [4]) | microsomal CLint (in vitro [6]) | solubility kinetic [9] | chromatographic logD [10] | half-life (in vitro [11]) | IC90 (Trypanosoma cruzi [13]) | half-life (in vitro [14]) | microsomal CLint (in vitro [15]) | IC50 (Trypanosoma cruzi [16]; [35]) | solubility kinetic [18] | IC90 (Trypanosoma cruzi [13]; [35]) | SMILES | IC50 [12] | also measured
6 | 30 µL/min/mg | 2.6 | 58 min | 50 µL/min/mg | 25 µg/mL (≈ 60.6 µM) | 3.9 | 35 min | – | 61 min | 29 µL/min/mg | 2.53 nM | < 1.6 µg/mL | 8.9 nM | CO/N=C(\C)c1ccc(-n2ccnc2)c(NC(=O)c2cnc(-c3ccccc3)cn2)c1 | 58700 nM | CLblood [8]: 38 mL/min/kg; CLhep predicted (in vitro [17]): 32.3 mL/min/kg
7 | – | – | – | – | – | – | – | – | – | – | 30 nM | – | 193 nM | OC(COc1ccc2cc(Br)ccc2c1)Cn1ccnc1 (configuration not stated) | 65900 nM | IC50 ([20]; Trypanosoma brucei, ATCC 30027): > 10000 nM; IC50 (Cytochrome P450 3A4 [27]): 700 nM
8 | – | – | – | – | – | – | – | 5670 nM and > 1000 nM and 8200 nM | – | – | – | – | – | CN1CCC(NCC(O)COc2ccc3cc(Br)ccc3c2)CC1 (configuration not stated) | – | IC50 (Leishmania infantum [31]): 426 nM and 198 nM and 500 nM; % inhibition in bone-marrow (Leishmania infantum [32]): 41.4%; % inhibition in liver (Leishmania infantum [32]): 26.8%; % inhibition in spleen (Leishmania infantum [32]): 44.9%; IC50 (Trypanosoma cruzi [16]): 853 nM and 3660 nM and 1930 nM; IC50 [20]: 28 nM and 74.5 nM and 57 nM; IC50 [33]: 53 nM; MSD [34]: 7 days
